According to PubChem BioAssay (NCI):
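Following 48 hours of exposure in 96-well plates, responses at five concentrations were used to interpolate endpoints linearly. GI50 marks 50% less growth. TGI is the concentration that stops growth completely.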

What was measured:
Experiment in all cases: growth of human tumour cells (NCI), 48 h
EKVX NSCLC = system: EKVX NSCLC
SK-OV-3 ovarian = system: SK-OV-3 ovarian
HL-60(TB) leukemia = system: HL-60(TB) leukemia
LOX IMVI melanoma = system: LOX IMVI melanoma
UO-31 renal = system: UO-31 renal
HCT-15 colon = system: HCT-15 colon
OVCAR-8 ovarian = system: OVCAR-8 ovarian
HT29 colon = system: HT29 colon
UACC-62 melanoma = system: UACC-62 melanoma
NCI-H522 lung = system: NCI-H522 lung
PC-3 prostate = system: PC-3 prostate

SMILES	TGI (EKVX NSCLC) [µM]	TGI (SK-OV-3 ovarian) [µM]	TGI (HL-60(TB) leukemia) [µM]	TGI (LOX IMVI melanoma) [µM]	TGI (UO-31 renal) [µM]	TGI (HCT-15 colon) [µM]	TGI (OVCAR-8 ovarian) [µM]	TGI (HT29 colon) [µM]	TGI (UACC-62 melanoma) [µM]	TGI (NCI-H522 lung) [µM]	TGI (PC-3 prostate) [µM]	GI50 (SK-OV-3 ovarian) [µM]	GI50 (HL-60(TB) leukemia) [µM]	GI50 (UO-31 renal) [µM]	GI50 (UACC-62 melanoma) [µM]	GI50 (PC-3 prostate) [µM]	GI50 (HCT-15 colon) [µM]	GI50 (OVCAR-8 ovarian) [µM]	GI50 (HT29 colon) [µM]
Clc1cc(OCc2nn3c(Cc4ccccc4)nnc3s2)c(Cl)cc1OCc1nn2c(Cc3ccccc3)nnc2s1	> 100	82.1	> 100	> 100	> 100	> 100	> 100	> 100	> 100	> 100	> 100								
c1csc(-c2ccc(CNc3c4ccccc4nc4ccccc34)cc2)c1		29.8	3.28		2.57				27		2.47	11	1.45	1.19	6.74	1.08			
CSCC(CO)NC(=O)/C=C/c1c(C)[nH]c(=O)[nH]c1=O (centres undefined)	872	> 875	> 875	> 875	> 875	> 875	> 348	> 875	> 875	499									
Cc1cccc2c1Sc1ccccc1C2NC(=O)CN(C)C (centres undefined)	> 100	> 100	> 100	> 100	> 100	> 100	> 100	> 100	> 100										
O=C1C(c2c(O)[nH]c3ccc(Cl)cc23)=Nc2ccccc21	> 53.1	11.2	> 100	> 79.7	2.25	> 100	21.9	> 100	> 91.3	> 100	> 28								
O=S(O)CCCSSSCCCS(=O)O	> 100	> 100	> 100	> 100	> 100			> 100	> 100	> 100									
Cc1ccc(C(C)C)c(OCC(=O)N/N=C/c2c[nH]c3ccc(Br)cc23)c1	11.1	12.7	7.42	16.4	13.7	14.9	15	4.78	8.92	8.17	4.43								
CC1(C)N=C(c2ccccc2)SC12S[C@@H]1CCCC[C@H]1S2	> 100	> 100	> 100	> 100	> 100	> 100	> 100	> 100	> 100	> 100	> 100								
CN(C)c1cccc(OC(=O)NCCCl)c1	> 100	> 100	> 100	> 100	> 100	> 100	> 100	> 100	> 100	> 100									
O=C(Sc1n[nH]c(=O)[nH]c1=O)c1cccc2nc3ccccc3nc12	> 100	> 100	> 100	> 100		> 100	> 100	61.9	> 100										
CN(c1ccccc1)c1nc(=[N+]2CCCC2)ss1	> 100	> 100	> 100		> 100	> 100	> 100		> 100										
c1ccc2c(c1)SP1Sc3ccccc3P21 (centres undefined)	> 100	> 100	> 100	> 100	> 100	> 100	> 100	> 100	> 100	> 100									
NNC(=O)c1cc([N+](=O)[O-])ccc1NC(=O)C12CC3CC(CC(C3)C1)C2	> 100	42.4	22.1	20.1	31.5	3.42	> 100	> 100	28	15.1	> 100								
COc1cc(NCCC(=O)O)c2ncccc2c1	> 100		> 100	> 100	> 100	> 100	> 100	> 100	> 100	> 100	> 100								
Cc1ccc(Nc2nc(=O)c3c([nH]c4ccccc43)s2)cc1	64.2	> 100	36.5	27.1	7.32	23.1	28.7	23.2	21	32.4	28.3								
S=c1[nH]n2c(COc3ccc(Cl)cc3)nnc2s1	> 100	> 100	> 100		> 100	> 100	> 100	> 100	> 100	> 100	> 100								
c1ccc2c(c1)SCCc1cn[nH]c1-2	> 100	> 100	> 100	> 100	> 100	> 100	> 100	> 100	> 100	> 100									
COC(=O)c1sc2c(c1C(=O)OC)C(=NC(C)(C)C)SC2=NC(C)(C)C	34.7	55.7	28.6	38.6	2.43	34.3	42.3	37.6	33.2	37.5	37								
N#C/C(=C\c1ccc([N+](=O)[O-])o1)c1n[nH]c(Cc2ccccc2)n1	8.31	16.5	6.83	3.85	9.74		> 25.1	2.83	3.55	1.57	7.43								
COCCNCc1ccc(-c2cc3nccc(Oc4ccc(NC(=O)C5(C(=O)Nc6ccc(F)cc6)CC5)cc4F)c3s2)nc1		3.78	5.12			4.57	5.13	2.89	4.66		5	1.93	2.29		1.89	1.81	1.68	2.11	0.912
CC[C@@H]([C@H](O)c1ccccc1Cl)[N+](=O)[O-]	> 100	> 100	> 100	> 100	> 100	> 100	> 100	> 100	> 100	> 100	> 100								
